Experiments:
Format in all cases: cell-based
[1] = test system: P. fluorescens strain ATCC 13525; test: Biofilm prevention screen (96-well microplate, crystal violet); details: Pseudomonas fluorescens, positive = prevention, negative = enhancement of biofilm formation, quadruplicate, read-out: average percentage reduction of biofilm formed relative to DMSO controls; for inhibition at 32 µM: ATCC13525, 32 μM; for inhibition at 160 µM: ATCC13525, 160 μM; for inhibition at 390 µM: ATCC13525, 390 μM
Summary of the method: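 Biofilm prevention is scored as percent decrease in CV-stained biomass relative to DMSO controls after 16–26 hours' growth with compound at final 250–500, 160 or 32 μM. Incubation was 30° C for both Pseudomonas strains and 37° C for S. epidermidis, with shaking.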

[2] = test system: P. aeruginosa strain PAO1; test: Improved biofilm dispersion screen (already-formed biofilms, crystal violet); details: Pseudomonas aeruginosa, 30 mM NaOH step, positive = dispersion, negative = enhancement of pre-existing biofilm, quadruplicate, read-out: average percentage reduction of biofilm relative to the two control values (dispersion)
Summary of the method: (§1)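 Biofilms were grown 24 h in duplicate plates without compound; one plate was crystal violet-stained for t0. On the other, fresh medium plus compound at 390 μM final was added for 22–26 h more, with DMSO controls giving t24. Value: average % biofilm reduction versus t0 and t24, quadruplicates.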

[3] = test system: P. fluorescens strain ATCC 13525; test: as above; details: Pseudomonas fluorescens, ATCC13525, 20 mM NaOH step, positive = dispersion, negative = enhancement of pre-existing biofilm, quadruplicate, read-out: average percentage reduction of biofilm relative to the two control values (dispersion)
Summary of the method: as §1

[4] = test system: S. epidermidis strain ATCC 35984; test: as above; details: Staphylococcus epidermidis, ATCC35984, no NaOH, positive = dispersion, negative = enhancement of pre-existing biofilm, quadruplicate, read-out: average percentage reduction of biofilm relative to the two control values (dispersion)
Summary of the method: as §1

Compound	inhibition at 32 µM [1]	inhibition at 160 µM [1]	inhibition at 390 µM [1]	inhibition at 390 µM [2]	inhibition at 390 µM [3]	inhibition at 390 µM [4]
O=C(NCCCCCCCCCCCCNC(=O)[C@H]1CCCN1)[C@H]1CCCN1 [Compound 226, D-proline 1,12-diaminododecane bisamide]	-19%	10%	69%	7%	32%	26%
CCCCCCCCCCNC(=O)[C@@H]1CCCN1 [Compound 32, L-proline n-decyl amide]	9%	55%	95%	-107%	0%	72%
CCCCCCCCCCCCNC(=O)[C@@H]1CCCN1 [Compound 168]	26%	97%	93%	17%	-3%	78%
